Measured values: US10927123B2, “Modulators of the beta-3 adrenergic receptor useful for the treatment or prevention of disorders related thereto” (Arena Pharmaceuticals, Inc., priority 2016, dated 2021)

The molecules below were run against Beta-3 Adrenergic Receptor (Homo sapiens (Human), UniProt P13945) (assay: HTRF cAMP antagonist assay (IC50 determination)). Conditions: CHO-K1 cells stably expressing recombinant receptor; antagonism of isoproterenol at EC90; cAMP readout.
Sequence of Beta-3 Adrenergic Receptor (P13945 whole entry, species assumed): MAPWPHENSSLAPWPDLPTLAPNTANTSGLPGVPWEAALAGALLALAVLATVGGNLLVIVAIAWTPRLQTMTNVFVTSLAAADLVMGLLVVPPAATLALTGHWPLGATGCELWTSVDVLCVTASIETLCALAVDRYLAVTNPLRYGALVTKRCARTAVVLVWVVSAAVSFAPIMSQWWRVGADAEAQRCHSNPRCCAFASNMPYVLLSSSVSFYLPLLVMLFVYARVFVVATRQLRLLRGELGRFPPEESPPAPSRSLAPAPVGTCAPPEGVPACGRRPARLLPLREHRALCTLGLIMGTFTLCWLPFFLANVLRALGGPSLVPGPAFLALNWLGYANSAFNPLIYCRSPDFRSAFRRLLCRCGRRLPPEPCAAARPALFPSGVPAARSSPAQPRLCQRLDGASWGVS
Type: cell-based
Method in brief: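 CHO-K1 cells stably expressing receptor, 1500 cells/well, preincubated briefly with 10-point 5-fold compound series (top final typically 10 or 100 μM) in PBS with 1 mM IBMX, then challenged with isoproterenol at EC90 for 1 h at room temperature. cAMP read by HTRF against on-plate standard curve; IC50 from dose-response.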
An IC50 of 0.0355 µM was found for `O=S(=O)(c1cccc(-c2ccc(CNCC(F)(F)F)cc2)c1)N1CCC2(CC1)C[C@H](NC[C@H](O)COc1cccc(S(=O)(=O)C3(CO)CC3)c1)CO2` [Compound 242, (S)-1-(3-(1-(hydroxymethyl)cyclopropylsulfonyl)phenoxy)-3-((S)-8-(4′-((2,2,2-trifluoroethylamino)methyl)biphenyl-3-ylsulfonyl)-1-oxa-8-azaspiro[4.5]decan-3-ylamino)propan-2-ol] in this work.
An IC50 of 0.035 µM was found for `O=S(=O)(c1cccc(-c2ccc(CN3CCC3)cc2)c1)N1CCC2(CC1)C[C@H](NC[C@H](O)COc1cccc(S(=O)(=O)C3(CO)CC3)c1)CO2` [Compound 243, (S)-1-((S)-8-(4′-(azetidin-1-ylmethyl)biphenyl-3-ylsulfonyl)-1-oxa-8-azaspiro[4.5]decan-3-ylamino)-3-(3-(1-(hydroxymethyl)cyclopropylsulfonyl)phenoxy)propan-2-ol] in this work.
An IC50 of 0.0278 µM was found for `CCCNCc1ccc(-c2cccc(S(=O)(=O)N3CCC4(CC3)C[C@H](NC[C@H](O)COc3cccc(S(=O)(=O)C5(CO)CC5)c3)CO4)c2)cc1` [Compound 244, (S)-1-(3-(1-(hydroxymethyl)cyclopropylsulfonyl)phenoxy)-3-((S)-8-(4′-((propylamino)methyl)biphenyl-3-ylsulfonyl)-1-oxa-8-azaspiro[4.5]decan-3-ylamino)propan-2-ol] in this work.
An IC50 of 0.0184 µM was found for `CCCCNCc1ccc(-c2cccc(S(=O)(=O)N3CCC4(CC3)C[C@H](NC[C@H](O)COc3cccc(S(=O)(=O)C5(CO)CC5)c3)CO4)c2)cc1` [Compound 245, (S)-1-((S)-8-(4′-((butylamino)methyl)biphenyl-3-ylsulfonyl)-1-oxa-8-azaspiro[4.5]decan-3-ylamino)-3-(3-(1-(hydroxymethyl)cyclopropylsulfonyl)phenoxy)propan-2-ol] in this work.
An IC50 of 0.0483 µM was found for `O=S(=O)(c1cccc(-c2ccc(CN3CCOCC3)cc2)c1)N1CCC2(CC1)C[C@H](NC[C@H](O)COc1cccc(S(=O)(=O)C3(CO)CC3)c1)CO2` [Compound 246, (S)-1-(3-(1-(hydroxymethyl)cyclopropylsulfonyl)phenoxy)-3-((S)-8-(4′-(morpholinomethyl)biphenyl-3-ylsulfonyl)-1-oxa-8-azaspiro[4.5]decan-3-ylamino)propan-2-ol] in this work.
An IC50 of 0.0335 µM was found for `COCCNCc1ccc(-c2cccc(S(=O)(=O)N3CCC4(CC3)C[C@H](NC[C@H](O)COc3cccc(S(=O)(=O)C5(CO)CC5)c3)CO4)c2)cc1` [Compound 247, (S)-1-(3-(1-(hydroxymethyl)cyclopropylsulfonyl)phenoxy)-3-((S)-8-(4′-((2-methoxyethylamino)methyl)biphenyl-3-ylsulfonyl)-1-oxa-8-azaspiro[4.5]decan-3-ylamino)propan-2-ol] in this work.
An IC50 of 0.0724 µM was found for `O=S(=O)(CCO)c1cc(F)cc(OC[C@@H](O)CN[C@H]2COC3(CCN(S(=O)(=O)c4cnc5ccccc5c4)CC3)C2)c1` [Compound 248, (S)-1-(3-fluoro-5-(2-hydroxyethylsulfonyl)phenoxy)-3-((R)-8-(quinolin-3-ylsulfonyl)-1-oxa-8-azaspiro[4.5]decan-3-ylamino)propan-2-ol] in this work.
An IC50 of 0.224 µM was found for `O=S(=O)(CCO)c1cc(F)cc(OC[C@@H](O)CN[C@H]2COC3(CCN(S(=O)(=O)c4ccc5ncccc5c4)CC3)C2)c1` [Compound 249, (S)-1-(3-fluoro-5-(2-hydroxyethylsulfonyl)phenoxy)-3-((R)-8-(quinolin-6-ylsulfonyl)-1-oxa-8-azaspiro[4.5]decan-3-ylamino)propan-2-ol] in this work.
An IC50 of 0.336 µM was found for `Cc1c(S(=O)(=O)N2CCC3(CC2)C[C@H](NC[C@H](O)COc2cccc(S(=O)(=O)C4(CO)CC4)c2)CO3)cnc2c1N(C)CCO2` [Compound 250, (S)-1-((S)-8-(1,8-dimethyl-2,3-dihydro-1H-pyrido[2,3-b][1,4]oxazin-7-ylsulfonyl)-1-oxa-8-azaspiro[4.5]decan-3-ylamino)-3-(3-(1-(hydroxymethyl)cyclopropylsulfonyl)phenoxy)propan-2-ol] in this work.
An IC50 of 0.0516 µM was found for `CCOc1ccc(-c2ccc(C(C)(C)N)cc2)cc1S(=O)(=O)N1CCC2(CC1)CC(NC[C@H](O)COc1cccc(S(=O)(=O)C3(CO)CC3)c1)CO2` (stereo partly drawn) [Compound 251] in this work.
An IC50 of 0.0293 µM was found for `CCOc1ccc(-c2ccc(C3(N)CC3)cc2)cc1S(=O)(=O)N1CCC2(CC1)C[C@H](NC[C@H](O)COc1cccc(S(=O)(=O)C3CC3)c1)CO2` [Compound 252] in this work.
An IC50 of 0.0291 µM was found for `COc1ccc(S(=O)(=O)N2CCC3(CC2)C[C@H](NC[C@H](O)COc2cccc(S(=O)(=O)C4CC4)c2)CO3)cc1-c1ccc(C2(N)CC2)cc1` [Compound 253, (S)-1-((S)-8-(4′-(1-aminocyclopropyl)-6-methoxybiphenyl-3-ylsulfonyl)-1-oxa-8-azaspiro[4.5]decan-3-ylamino)-3-(3-(cyclopropylsulfonyl)phenoxy)propan-2-ol] in this work.
An IC50 of 0.0418 µM was found for `CCOc1ccc(-c2ccc(C3(N)CC3)cc2)cc1S(=O)(=O)N1CCC2(CC1)C[C@@H](NC[C@H](O)COc1cccc(S(=O)(=O)C3CC3)c1)CO2` [Compound 254, (S)-1-((R)-8-(4′-(1-aminocyclopropyl)-4-ethoxybiphenyl-3-ylsulfonyl)-1-oxa-8-azaspiro[4.5]decan-3-ylamino)-3-(3-(cyclopropylsulfonyl)phenoxy)propan-2-ol] in this work.
An IC50 of 0.0279 µM was found for `COc1ccc(S(=O)(=O)N2CCC3(CC2)C[C@@H](NC[C@H](O)COc2cccc(S(=O)(=O)C4CC4)c2)CO3)cc1-c1ccc(C2(N)CC2)cc1` [Compound 255, (S)-1-((R)-8-(4′-(1-aminocyclopropyl)-6-methoxybiphenyl-3-ylsulfonyl)-1-oxa-8-azaspiro[4.5]decan-3-ylamino)-3-(3-(cyclopropylsulfonyl)phenoxy)propan-2-ol] in this work.
An IC50 of 0.0326 µM was found for `CCOc1ccc(-c2ccc(C3(N)CC3)cc2)cc1S(=O)(=O)N1CCC2(CC1)C[C@H](NC[C@H](O)COc1cccc(S(=O)(=O)CC)c1)CO2` [Compound 256, (S)-1-((S)-8-(4′-(1-aminocyclopropyl)-4-ethoxybiphenyl-3-ylsulfonyl)-1-oxa-8-azaspiro[4.5]decan-3-ylamino)-3-(3-(ethylsulfonyl)phenoxy)propan-2-ol] in this work.
An IC50 of 0.0378 µM was found for `CCOc1ccc(-c2ccc(C3(N)CC3)cc2)cc1S(=O)(=O)N1CCC2(CC1)C[C@@H](NC[C@H](O)COc1cccc(S(=O)(=O)CC)c1)CO2` [Compound 257, (S)-1-((R)-8-(4′-(1-aminocyclopropyl)-4-ethoxybiphenyl-3-ylsulfonyl)-1-oxa-8-azaspiro[4.5]decan-3-ylamino)-3-(3-(ethylsulfonyl)phenoxy)propan-2-ol] in this work.
An IC50 of 0.0277 µM was found for `CCS(=O)(=O)c1cccc(OC[C@@H](O)CN[C@H]2COC3(CCN(S(=O)(=O)c4ccc(OC)c(-c5ccc(C6(N)CC6)cc5)c4)CC3)C2)c1` [Compound 258, (S)-1-((R)-8-(4′-(1-aminocyclopropyl)-6-methoxybiphenyl-3-ylsulfonyl)-1-oxa-8-azaspiro[4.5]decan-3-ylamino)-3-(3-(ethylsulfonyl)phenoxy)propan-2-ol] in this work.
An IC50 of 0.158 µM was found for `Cc1nc2c(cc1S(=O)(=O)N1CCC3(CC1)C[C@@H](NC[C@H](O)COc1cccc(S(=O)(=O)C4CC4)c1)CO3)N(C)CCO2` [Compound 259, (S)-1-(3-(cyclopropylsulfonyl)phenoxy)-3-((R)-8-(1,6-dimethyl-2,3-dihydro-1H-pyrido[2,3-b][1,4]oxazin-7-ylsulfonyl)-1-oxa-8-azaspiro[4.5]decan-3-ylamino)propan-2-ol] in this work.
An IC50 of 0.178 µM was found for `Cc1c(S(=O)(=O)N2CCC3(CC2)C[C@@H](NC[C@H](O)COc2cccc(S(=O)(=O)C4(CO)CC4)c2)CO3)cnc2c1N(C)CCO2` [Compound 260, (S)-1-((R)-8-(1,8-dimethyl-2,3-dihydro-1H-pyrido[2,3-b][1,4]oxazin-7-ylsulfonyl)-1-oxa-8-azaspiro[4.5]decan-3-ylamino)-3-(3-(1-(hydroxymethyl)cyclopropylsulfonyl)phenoxy)propan-2-ol] in this work.
An IC50 of 0.0388 µM was found for `CCS(=O)(=O)c1cccc(OC[C@@H](O)CN[C@@H]2COC3(CCN(S(=O)(=O)c4ccc(OC)c(-c5ccc(C6(N)CC6)cc5)c4)CC3)C2)c1` [Compound 261, (S)-1-((S)-8-(4′-(1-aminocyclopropyl)-6-methoxybiphenyl-3-ylsulfonyl)-1-oxa-8-azaspiro[4.5]decan-3-ylamino)-3-(3-(ethylsulfonyl)phenoxy)propan-2-ol] in this work.
An IC50 of 0.982 µM was found for `CC(C)(C)NCc1ccc(-c2cccc(S(=O)(=O)N3CCC4(CC3)C[C@@H](NC[C@H](O)COc3cccc(S(=O)(=O)C5(CO)CC5)c3)CO4)c2)cc1` [Compound 262, (S)-1-((R)-8-(4′-((tert-butylamino)methyl)biphenyl-3-ylsulfonyl)-1-oxa-8-azaspiro[4.5]decan-3-ylamino)-3-(3-(1-(hydroxymethyl)cyclopropylsulfonyl)phenoxy)propan-2-ol] in this work.
An IC50 of 0.755 µM was found for `CCC(C)(C)NCc1ccc(-c2cccc(S(=O)(=O)N3CCC4(CC3)C[C@@H](NC[C@H](O)COc3cccc(S(=O)(=O)C5(CO)CC5)c3)CO4)c2)cc1` [Compound 263, (S)-1-(3-(1-(hydroxymethyl)cyclopropylsulfonyl)phenoxy)-3-((R)-8-(4′-((tert-pentylamino)methyl)biphenyl-3-ylsulfonyl)-1-oxa-8-azaspiro[4.5]decan-3-ylamino)propan-2-ol] in this work.
An IC50 of 0.98 µM was found for `O=S(=O)(c1cccc(-c2ccc(CNCC(F)(F)F)cc2)c1)N1CCC2(CC1)C[C@@H](NC[C@H](O)COc1cccc(S(=O)(=O)C3(CO)CC3)c1)CO2` [Compound 264, (S)-1-(3-(1-(hydroxymethyl)cyclopropylsulfonyl)phenoxy)-3-((R)-8-(4′-((2,2,2-trifluoroethylamino)methyl)biphenyl-3-ylsulfonyl)-1-oxa-8-azaspiro[4.5]decan-3-ylamino)propan-2-ol] in this work.
An IC50 of 0.374 µM was found for `O=S(=O)(c1cccc(-c2ccc(CN3CCC3)cc2)c1)N1CCC2(CC1)C[C@@H](NC[C@H](O)COc1cccc(S(=O)(=O)C3(CO)CC3)c1)CO2` [Compound 265, (S)-1-((R)-8-(4′-(azetidin-1-ylmethyl)biphenyl-3-ylsulfonyl)-1-oxa-8-azaspiro[4.5]decan-3-ylamino)-3-(3-(1-(hydroxymethyl)cyclopropylsulfonyl)phenoxy)propan-2-ol] in this work.
